Patent US9393288B2, “Methods of treating diseases associated with PPARγ” (The University of Vermont and State Agricultural College, priority 2012, dated 2016)
Entries after “also recorded” stand apart in the source; their conditions may differ.

Tests used:
Format in all cases: in vivo, rat
VEGF = VEGF expression in brain cortex (immunohistochemistry and qPCR), SHR; conditions: SHR-F-Rln vs SHR-F
Procedure: (§1) After dissecting PA and MCA for isolated vessel experiments, the remaining MCA, PA, and brain cortex from the MCA territory of 4-6 rats were collected and stored at −80° C. in RNase inhibitor (1 unit/μl, RiboLock, Fermentas, Glen Burnie, Md., USA) to determine mRNA expression levels of target genes using real-time qPCR methods. Target genes were assessed using Assays on Demand from Applied Biosystems. […] All primers were designed across an exon-exon junction to avoid detecting genomic DNA, so no DNase treatment was required. Housekeeping gene β-actin was used in all qPCR experiments as a control. Standard techniques for real-time qPCR were performed by the Vermont Cancer Center DNA analysis facility at the University of Vermont, as described previously (Cipolla, M. J., Smith, J., Kohlmeyer, M. M., and Godfrey, J. A. (2009) SKCa and IKCa Channels, myogenic tone, and vasodilator responses in middle cerebral arteries and parenchymal arterioles: effect of ischemia and reperfusion. Stroke 40, 1451-1457).
(§2) To investigate the mechanisms by which relaxin causes selectively remodeling of PA, mRNA expression of VEGF, MMP-2, and MMP-9 were compared between MCA, PA, brain cortex. To determine if relaxin activates peroxisome proliferator-activated receptor-gamma (PPARγ), expression levels of PPARγ target genes fatty acid binding protein-4 (FABP4) and plasminogen activator inhibitor-1 (PAI-1) were determined in mesenteric adipose tissue. Expression levels of PPARγ and its target genes PAI-1 and liver X receptors-α (LXR-α) were also determined in brain cortex (Chan, S. L., and Cipolla, M. J. (2012) Determination of PPARgamma activity in adipose tissue and spleen. J Immunoassay Immunochem 33, 314-324).
Brain cortex from the MCA region from WKY-F, SHR-F and SHR-F-Rln groups was collected and fixed in 4% formaldehyde for 48 hours at 4° C. and embedded in paraffin. Brain cortex was cut into 5 μm sections. […] Staining intensity was assessed using a semi-quantitative scoring system from 0 (lowest staining intensity) to 5 (highest staining intensity) in a blinded fashion. […]

MMP-2 = MMP-2 mRNA expression (qPCR) in brain cortex and PA, SHR; conditions: relaxin-treated SHR
Procedure: After dissecting PA and MCA for isolated vessel experiments, the remaining MCA, PA, and brain cortex from the MCA territory of 4-6 rats were collected and stored at −80° C. in RNase inhibitor (1 unit/μl, RiboLock, Fermentas, Glen Burnie, Md., USA) to determine mRNA expression levels of target genes using real-time qPCR methods. Target genes were assessed using Assays on Demand from Applied Biosystems. […] All primers were designed across an exon-exon junction to avoid detecting genomic DNA, so no DNase treatment was required. Housekeeping gene β-actin was used in all qPCR experiments as a control. […]
as §2

[1] = tested on: PPARγ and PPARγ target genes; experiment: Expression of PPARγ and PPARγ target genes (qPCR) in adipose tissue and brain cortex, SHR
Procedure: as §1, §2

[2] = SHR-F-Rln vs SHR-F, listed as Relaxin

Substance: relaxin
- VEGF mRNA expression in brain cortex (VEGF): increased
- VEGF immunoreactivity (staining intensity) in brain cortex (VEGF; p<0.05): significantly increased
- VEGF mRNA expression in brain cortex (VEGF; listed as Relaxin): significantly increased
- MMP-2 expression in brain cortex (MMP-2): increased
- FABP4 expression in adipose tissue [1, 2]: decreased both FABP4 and PAI-1 expressions in adipose tissue, although this was not statistically significant; also recorded: decreased expression of FABP4 and PAI-1 in adipose tissue, although this was not statistically significant
- PAI-1 expression in adipose tissue [1, 2]: decreased both FABP4 and PAI-1 expressions in adipose tissue, although this was not statistically significant; also recorded: decreased expression of FABP4 and PAI-1 in adipose tissue, although this was not statistically significant
- Expression of PPARγ and its target genes (PAI-1, LXR-α) in brain cortex ([1]; WKY-F, SHR-F, SHR-F-Rln): did not affect
